Reference: patent US20030018991A1, “Transformation and regeneration of wheat using increased copper levels” (priority 2001, published 2003)
Like-named read-outs stand apart in the source and are kept apart here.

How the values were obtained:
[1] = system: cultures of the anther of tetraploid (pasta) wheat; settings: cited from earlier work
[2] = system: wheat embryogenic calluses induced from scutellar tissues; assay: Shoot regeneration from embryogenic calluses on RZ regeneration medium supplemented with CuSO4; format: cell-based; settings: for optimum range of copper concentration: number of plants regenerated per callus
Experimental: The primary culture explants were immature embryos or scutella. Wheat caryopses containing early-medium milk-stage grains with translucent embryos were harvested and surface-sterilised in 70% ethanol for 5 min and 0.5% hypochlorite solution for 15 min. Under aseptic conditions, embryos of approximately 0.5-1.0 mm length were isolated and either cultured entirely or the embryo axes were removed to produce isolated scutella. Thirty embryos/scutella were placed in the center (18 mm target circle) of a 90 mm Petri dish containing callus induction medium. The callus induction medium for embryos/scutellar tissues, called MD0.5, consisted of solidified (0.5% […], Sigma A3301) modified MS medium supplemented with 9% sucrose, 10 mg l^-1 AgNO3 and 0.5 mg l^-1 2,4-D (Rasco-Gaunt et al., 2001 J. Exp. Bot. 52 (357): 865-874). Embryos/scutella were placed with the embryo-axis side in contact with the medium. Cultures were incubated at 25±1° C. in darkness for approximately 24 hr before bombardment. Embryogenic calluses were transferred, for regeneration, to RZ regeneration medium and cultured under 12 h light (250 μE s^-1 m^-2, from cool white fluorescent tubes) at 25+1° C. for three weeks. The RZ regeneration medium, contained L salts, vitamins and myo-inositol, 3% w/v maltose, 0.1 mg l^-1 2,4-D and 5 mg l^-1 zeatin (Rasco-Gaunt and Barcelo, 1999 Plant Cell Culture Protocols. Methods in Molecular Biology series. Hall, RD ed. 111: 71-81, Humana Press, Totowa NJ) and CuSO4 at concentrations ranging from 0 to 1000 μM. The supplementation of silver nitrate in the range of 1-20 mg l^-1 is optional. Selection agents such as 2-6 mg l^-1 Glufosinate ammonium (Greyhound, United Kingdom) and 10-500 ppm sulfonylurea herbicide e.g. Nicosulfuron (DuPont, France) and Rimsulfuron (DuPont, France) were incorporated in RZ regeneration medium. A second three-week culture passage on the same medium was performed as required, with or without a selection agent. Following culture on RZ regeneration medium, plantlets were cultured for one or two three-week passages on R0 medium (RZ without hormones, AgNO3 and CuSO4 supplementation), with or without the selection agent. To determine the effects of increased copper concentration on shoot regeneration, embryogenic calluses were subcultured onto RZ regeneration medium (see Example 1) supplemented with CuSO4 at concentrations ranging from 0 to 1000 μM. Prior to transfer onto RZ regeneration medium, calluses were induced from scutellar tissues. Procedures for the growth of donor plant materials, isolation of explants and culture initiation are described in Example 1. Following culture on CuSO4 medium, the calluses were transferred to R0 medium (see Example 1). After three weeks, regeneration frequencies of calluses, average number of plant per callus, as well as shoot quality were noted. Regeneration frequency is calculated as the number of shoot-producing calluses divided by the total number of scutella isolated. Percent (%) regeneration is […] multiplied by 100.

[3] = system: callus cultures in hexaploid wheat; settings: cited from earlier work
[4] = system: wheat scutellar tissues; assay: Recovery of transgenic wheat lines and plant escapes after particle bombardment, with 100 μM copper in regeneration medium; format: cell-based
[5] = 100 μM copper, PPT selection, different genotypes (Example 4)

SMILES: O=S(=O)([O-])[O-].[Cu+2] [CuSO4]
- production of embryoid from anthers versus control treatment ([1]; 20 or 40 μM CuSO4, three of four genotypes): increased
- embryoid production ([1]; fourth genotype, all levels tested (10, 20 or 40 μM)): reduced
- production of green plants versus control media ([1]; over the four genotypes, copper-containing media): lower
- shoot quality ([2]; copper levels up to 500 μM, Riband and Imp, versus control 0.1 μM copper): vigorous and prolific
- optimum range of copper concentration ([2]; variety Eole): 100 to 150 µM
- optimum range of copper concentration ([2]; variety NH535): 100 to 200 µM
- regeneration frequencies ([2]; wheat variety Eole, CuSO4 levels up to 300 μM): 100%
- Plant regeneration frequency ([2]; wheat variety Imp, CuSO4 levels up to 300 μM): 100%
- regeneration frequencies ([2]; wheat variety NH535, CuSO4 levels up to 300 μM): 100%
- Plant regeneration frequency ([2]; wheat variety Riband, levels up to 500 μM CuSO4): 100%
- effect on regeneration frequency ([2]; while improving shoot quality): no negative effect
- regeneration rates relative to original MS copper level (0.1 μM) ([3]; 10 μM CuSO4, Purnhauser 1991): eight times higher
- optimum Cu level ([3]; "more detailed" studies cited in Purnhauser 1991): 2 µM
- optimum Cu level ([3]; Purnhauser 1991 study): 10 µM
- maximum regeneration frequency achieved ([3]; optimum 10 μM Cu, single breeding line, Purnhauser 1991): 59%
- transformation frequency ([4]; 100 μM CuSO4, Cadenza and NH535, PPT and sulfonylurea selection systems): improved
- frequency of plant escapes [4, 5]: did not have an important effect
- recovery of transformants / transformation efficiencies [4, 5]: improved
- plant escape frequency ([4]; 100 μM copper, plasmid pHP8092, PPT selection, varieties Cadenza and NH535): slightly higher
- plant escapes ([4]; 100 μM copper, variety Cadenza, PPT selection, constructs p15629 and pAHC20): clear reduction
- escape frequency ([4]; 100 μM copper, variety NH535, sulfonylurea selection, construct pML146): higher
